Laboratory results from patent US20080188518A1 (priority 2003, published 2008).

Biological target: α7 nAChR subtype (Rattus norvegicus, UniProt Q05941)
Format: binding
Details: read-out: KD of radioligand (saturation curves, one site model)

Sequence of α7 nAChR subtype (Q05941 23-502 limits assumed): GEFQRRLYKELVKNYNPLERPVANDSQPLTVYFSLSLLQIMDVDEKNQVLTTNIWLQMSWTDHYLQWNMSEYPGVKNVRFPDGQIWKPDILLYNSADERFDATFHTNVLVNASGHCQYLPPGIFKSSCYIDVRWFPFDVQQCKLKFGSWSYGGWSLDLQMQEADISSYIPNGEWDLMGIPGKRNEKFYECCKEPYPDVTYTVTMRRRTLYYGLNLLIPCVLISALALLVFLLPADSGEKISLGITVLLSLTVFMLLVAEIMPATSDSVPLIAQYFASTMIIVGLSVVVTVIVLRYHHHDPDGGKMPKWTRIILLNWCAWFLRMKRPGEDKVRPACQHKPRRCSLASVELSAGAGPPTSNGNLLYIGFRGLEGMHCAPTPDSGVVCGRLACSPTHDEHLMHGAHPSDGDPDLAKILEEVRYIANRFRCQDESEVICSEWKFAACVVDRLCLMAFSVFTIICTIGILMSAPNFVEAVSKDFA

125I-α-Bungarotoxin [[^125I]-α-BTX]
Kd: 1.67 nM
